One series deals with 3T3-L1. In words: Inhibition of triglyceride accumulation in mouse 3T3L1 cells at 10 uM after 24 hrs. The series is classed as functional. As to conditions: for inhibition at 10 µM: 3T3-L1, 24 h.
Series [1] has as its system Mus musculus. In words: Antiobesity activity in diet-induced obese C57Bl/6 mouse assessed as reduction in hepatic triglyceride level at 50 mg/kg/day, po for 4 weeks administered with high-fat diet by Oil Red O staining-based histological method. More on the design: scale not given: the % may be the effect or the level left. The series is classed as functional.
For series [2], the system named is Mus musculus. In words: Increase in glucose tolerance in diet-induced obese C57Bl/6 mouse at 50 mg/kg/day, po for 4 weeks by oral glucose tolerance test. The series is classed as functional, organism-based.
Series [3] concerns Mus musculus. The series can be described thus: Toxicity in diet-induced obese C57Bl/6 mouse assessed as change in food intake at 50 mg/kg/day, po for 4 weeks administered with high-fat diet. The series is classed as organism-based. Set-up: route oral. As to conditions: in vivo, 672 h.
For series [4], the system named is Mus musculus. The series can be described thus: Decrease in insulin resistance in diet-induced obese C57Bl/6 mouse assessed as induction of insulin secretion at 50 mg/kg/day, po for 4 weeks by insulin tolerance test. The series is classed as functional, organism-based.
The subject of series [5] is Mus musculus. In words: Antiobesity activity in diet-induced obese C57Bl/6 mouse assessed as loss of liver weight at 50 mg/kg/day, po for 4 weeks administered with high-fat diet. The series is classed as functional.
Series [6] deals with Mus musculus. The series can be described thus: Antiobesity activity in diet-induced obese C57Bl/6 mouse assessed as reduction in HOMA-IR value at 50 mg/kg/day, po for 4 weeks administered with high-fat diet (reference value: 3.06 +/- 0.85 no_unit). The series is classed as functional.
For series [7], the system named is Mus musculus. The series can be described thus: Antiobesity activity in diet-induced obese C57Bl/6 mouse assessed as reduction in fat accumulation in liver at 50 mg/kg/day, po for 4 weeks administered with high-fat diet by Oil Red O staining-based histological method. The series is classed as functional, organism-based.
Series [8] relates to Mus musculus. In words: Toxicity in diet-induced obese C57Bl/6 mouse assessed as change in ALT level at 50 mg/kg/day, po for 4 weeks administered with high-fat diet (reference value: 33.00 +/- 18.23 U/L). The series is classed as organism-based. More on the design: route oral. As to conditions: in vivo, 672 h.
Series [9] concerns Mus musculus. In words: Toxicity in diet-induced obese C57Bl/6 mouse assessed as change in AST level at 50 mg/kg/day, po for 4 weeks administered with high-fat diet (reference value: 125.00 +/- 35.00 U/L). The series is classed as organism-based. More on the design: route oral. To be noted: in vivo, 672 h.
For series [10], the system named is Mus musculus. In words: Antiobesity activity in diet-induced obese C57Bl/6 mouse assessed as reduction in body weight at 50 mg/kg/day, po for 4 weeks administered with high-fat diet. The series is classed as functional. More on the design: scale not given: the % may be the effect or the level left.
Series [11] relates to Mus musculus. In words: Antiobesity activity in diet-induced obese C57Bl/6 mouse assessed as reduction in FFA level at 50 mg/kg/day, po for 4 weeks administered with high-fat diet (reference value: 19.55 +/- 1.57 ng/L). The series is classed as functional.
Series [12] deals with Mus musculus. The series can be described thus: Antiobesity activity in diet-induced obese C57Bl/6 mouse assessed as loss of epididymal fat mass at 50 mg/kg/day, po for 4 weeks administered with high-fat diet. The series is classed as functional.
In series [13] the test system is Rattus norvegicus. The series can be described thus: Acute toxicity in Sprague-Dawley rat assessed as clinical signs at 2.5 g/kg, po as single dose measured after 7 days. The series is classed as organism-based. As to conditions: in vivo, 2500 mg/kg, 168 h.
Series [14] has as its system Mus musculus. In words: Antiobesity activity in diet-induced obese C57Bl/6 mouse assessed as reduction in fasting blood glucose at 50 mg/kg/day, po for 4 weeks administered with high-fat diet (reference value: 5.0 +/- 1.30 mM). The series is classed as functional.
The subject of series [15] is Rattus norvegicus. In words: Acute toxicity in Sprague-Dawley rat assessed as mortality at 2.5 g/kg, po as single dose measured after 7 days. The series is classed as organism-based. To be noted: in vivo, 2500 mg/kg, 168 h.
The subject of series [16] is Mus musculus. The series can be described thus: Antiobesity activity in diet-induced obese C57Bl/6 mouse assessed as change in insulin level at 50 mg/kg/day, po for 4 weeks administered with high-fat diet (reference value: 11.85 +/- 2.6 mU). The series is classed as functional.
Series [17] has as its system Mus musculus. The series can be described thus: Antiobesity activity in diet-induced obese C57Bl/6 mouse assessed as reduction in triglyceride level at 50 mg/kg/day, po for 4 weeks administered with high-fat diet (reference value: 0.93 +/- 0.09 mM). The series is classed as functional.
The test system of series [18] is Mus musculus. In words: Antiobesity activity in diet-induced obese C57Bl/6 mouse assessed as reduction in LDL level at 50 mg/kg/day, po for 4 weeks administered with high-fat diet (reference value: 0.14 +/- 0.07 mM). The series is classed as functional.
Series [19] has as its system Mus musculus. The series can be described thus: Antiobesity activity in diet-induced obese C57Bl/6 mouse assessed as reduction in lipid droplets in liver at 50 mg/kg/day, po for 4 weeks administered with high-fat diet by Oil Red O staining-based histological method. The series is classed as functional, organism-based.
In series [20] the test system is Rattus norvegicus. The series can be described thus: Acute toxicity in Sprague-Dawley rat assessed as change in body weight at 2.5 g/kg, po as single dose measured after 7 days. The series is classed as organism-based. To be noted: in vivo, 2500 mg/kg, 168 h.
For series [21], the system named is Mus musculus. The series can be described thus: Antiobesity activity in diet-induced obese C57Bl/6 mouse assessed as increase in HDL level at 50 mg/kg/day, po for 4 weeks administered with high-fat diet (reference value: 0.60 +/- 0.17 mM). The series is classed as functional.

What is called inhibition is the percentage by which the read-out fell short of the control.

Each structure is given as a SMILES string. Calls of active or inactive are those of the source. The calls are words filed in the database; no cut-off is given here.

With `CCCCn1c(-c2ccc(OCCN(C)c3ccccn3)cc2)nc2c1c(=O)n(Cc1ccccc1C#N)c(=O)n2C`, the inhibition entry in the series with 3T3-L1 is “Active”.
As to `C=CCn1c(=O)c2c(nc(-c3ccc(OCCN(C)c4ccccn4)cc3)n2CC=C)n(C)c1=O`, in the series on 3T3-L1, the inhibition result is “inactive”.
`NC(=O)c1ncn([C@@H]2O[C@H](CO)[C@@H](O)[C@H]2O)c1N` [ACADESINE] displayed an inhibition at 10 µM in the series with 3T3-L1 of 51%.
In the case of `CCCn1c(=O)c2c(nc(-c3ccc(OCCN(C)c4ccccn4)cc3)n2CCC)n(C)c1=O`, in the series with 3T3-L1, the inhibition entry was “inactive”.
In the case of `CCOC(=O)CCCn1c(=O)c2c(nc(-c3ccc(OCCN(C)c4ccccn4)cc3)n2COC(=O)C(C)(C)C)n(C)c1=O`, in the series with 3T3-L1, the inhibition result was “inactive”.
The same measure, in the same setting: then `CN(CCOc1ccc(-c2nc3c(c(=O)n(Cc4ccccc4C#N)c(=O)n3C)n2CCO)cc1)c1ccccn1`, with “Active”; and `C=CCn1c(=O)c2[nH]c(-c3ccc(OCCN(C)c4ccccn4)cc3)nc2n(C)c1=O`, with “inactive”.
In the case of `CCCn1c(=O)c2c(nc(-c3ccc(OCCN(C)c4ccccn4)cc3)n2CC)n(C)c1=O`, the inhibition entry with 3T3-L1 was “inactive”.
The same measure, in the same setting: then `CN(CCOc1ccc(-c2nc3c(c(=O)n(Cc4ccccc4C#N)c(=O)n3C)n2C)cc1)c1ccccn1`, with “inactive”; and `C=CCn1c(-c2ccc(OCCN(C)c3ccccn3)cc2)nc2c1c(=O)n(Cc1ccc(F)cc1)c(=O)n2C`, with “inactive”.
Consider `COc1ccc(Cn2c(=O)c3[nH]c(-c4ccc(OCCN(C)c5ccccn5)cc4)nc3n(C)c2=O)cc1`, for which the inhibition entry in the series with 3T3-L1 is “inactive”.
Same read-out and setting: then `CN(CCOc1ccc(-c2nc3c(c(=O)[nH]c(=O)n3C)n2COC(=O)C(C)(C)C)cc1)c1ccccn1`, with “Active”.
Still for that read-out and setting: in the case of `CN(CCOc1ccc(-c2nc3c(c(=O)n(Cc4ccccc4C#N)c(=O)n3C)n2CC(=O)O)cc1)c1ccccn1` it was “inactive”; in that of `CCCn1c(=O)c2[nH]c(-c3ccc(OCCN(C)c4ccccn4)cc3)nc2n(C)c1=O`, “inactive”.
Same read-out and setting: in the case of `CN(CCOc1ccc(-c2nc3c(c(=O)n(Cc4ccccc4C#N)c(=O)n3C)n2CCCC(=O)O)cc1)c1ccccn1` it was “inactive”; in that of `CC(C)Cn1c(-c2ccc(OCCN(C)c3ccccn3)cc2)nc2c1c(=O)n(Cc1ccccc1C#N)c(=O)n2C`, “inactive”.
Turning to `CCCn1c(-c2ccc(OCCN(C)c3ccccn3)cc2)nc2c1c(=O)n(Cc1ccccc1C#N)c(=O)n2C`, the Activity is listed as 5.15% in the series with Mus musculus [1]; “Non-toxic” with Mus musculus [3]; 12.8% in the series on Mus musculus [5]; 3.99 in the series on Mus musculus [6]; 86 U/L in the series with Mus musculus [8]; 150 U/L with Mus musculus [9]. The Activity was 7.64% in the series on Mus musculus [10]; 24.43 ng/L with Mus musculus [11]; 4.76% in the series with Mus musculus [12]; “Non-toxic” in the series with Rattus norvegicus [13]; 7.25 mM in the series on Mus musculus [14]; “Non-toxic” in the series with Rattus norvegicus [15]. The Activity in the series on Mus musculus [16] is given as 12.04 mU; in the series with Mus musculus [17], 1.15 mM; in the series with Mus musculus [18], 0.16 mM; with Rattus norvegicus [20] it was “Non-toxic”; with Mus musculus [21] it was 0.96 mM. In addition, the outcome with Mus musculus [2], in the series on Mus musculus [4] and with Mus musculus [19] was inactive. Besides, the result in the series with Mus musculus [7] was Active. This compound returned an inhibition at 10 µM with 3T3-L1 of 51.1%.
Take `CCn1c(-c2ccc(OCCN(C)c3ccccn3)cc2)nc2c1c(=O)n(Cc1ccc(OC)cc1)c(=O)n2C`: in the series on 3T3-L1, the inhibition entry was “inactive”.
On the same count and under the same terms, in the case of `CCn1c(-c2ccc(OCCN(C)c3ccccn3)cc2)nc2c1c(=O)n(Cc1ccc(F)cc1)c(=O)n2C` it was “inactive”.
Still for that read-out and setting: in the case of `CCCCCn1c(-c2ccc(OCCN(C)c3ccccn3)cc2)nc2c1c(=O)n(Cc1ccccc1C#N)c(=O)n2C` it was “inactive”; in that of `CN(CCOc1ccc(-c2nc3c([nH]2)c(=O)n(CCCC(=O)O)c(=O)n3C)cc1)c1ccccn1`, “inactive”; in that of `C=CCn1c(-c2ccc(OCCN(C)c3ccccn3)cc2)nc2c1c(=O)n(Cc1ccc(OC)cc1)c(=O)n2C`, “inactive”.
In the case of `C=CCn1c(-c2ccc(OCCN(C)c3ccccn3)cc2)nc2c1c(=O)n(Cc1ccccc1C#N)c(=O)n2C`, in the series on 3T3-L1, the inhibition result is “inactive”.
On to `CCOC(=O)Cn1c(=O)c2c(nc(-c3ccc(OCCN(C)c4ccccn4)cc3)n2COC(=O)C(C)(C)C)n(C)c1=O`, for which the inhibition result in the series with 3T3-L1 is “inactive”.
Take `CN(CCOc1ccc(-c2nc3c([nH]2)c(=O)n(CC(=O)O)c(=O)n3C)cc1)c1ccccn1`: the inhibition result with 3T3-L1 is “inactive”.
Turning to `CC(C)=CCn1c(-c2ccc(OCCN(C)c3ccccn3)cc2)nc2c1c(=O)n(Cc1ccccc1C#N)c(=O)n2C`, the inhibition result in the series with 3T3-L1 is “inactive”.
The same measure, in the same setting: then `CCOC(=O)CCCn1c(-c2ccc(OCCN(C)c3ccccn3)cc2)nc2c1c(=O)n(Cc1ccccc1C#N)c(=O)n2C`, with “inactive”.
Consider `CN(CCOc1ccc(-c2nc3c(c(=O)n(CC(=O)O)c(=O)n3C)n2CC(=O)O)cc1)c1ccccn1`, for which the inhibition entry in the series on 3T3-L1 is “Active”.
On the same count and under the same terms, then `CCOC(=O)Cn1c(-c2ccc(OCCN(C)c3ccccn3)cc2)nc2c1c(=O)n(Cc1ccccc1C#N)c(=O)n2C`, with “inactive”.
The same measure, in the same setting: in the case of `CCn1c(=O)c2c(nc(-c3ccc(OCCN(C)c4ccccn4)cc3)n2CC)n(C)c1=O` it was “inactive”.

These data come from ChEMBL document CHEMBL3352801, “Synthesis and lipid-lowering evaluation of 3-methyl-1H-purine-2,6-dione derivatives as potent and orally available anti-obesity agents” (Eur J Med Chem, 2014).
